This passage reports MFC and IC50 results from ChEMBL document CHEMBL1125503, “Preparation and structure-activity relationships of simplified analogues of the antifungal agent cilofungin: a total synthesis approach” (J Med Chem, 1992).

One test concerns Candida tropicalis. The test can be described thus: Antifungal activity on Candida tropicalis MY101. Format: functional.
Test [1] relates to Candida albicans. The test can be described thus: Concentration inhibiting Candida beta-1,3-glucan synthesis was determined in a Candida albicans cell culture. It is filed as functional, organism-based.
Test [2] deals with Candida albicans. The test can be described thus: Antifungal activity on Candida albicans MY1208. Format: functional.
In test [3] the test system is Candida albicans. In words: Antifungal activity on Candida albicans MY1028. It is filed as functional.
Test [4] concerns Candida albicans. In words: Antifungal activity on Candida albicans MY1055. Format: functional.
The subject of a further test is Candida parapsilosis. The test can be described thus: Antifungal activity on Candida parapsilosis MY1010. Format: functional. The settings on record: Lodderomyces parapsilosis.

Each structure is given as a SMILES string. In brackets after ≈: the same amount, converted by molar mass. Starred links: 1 amine or outer side, 2 acyl side, 3 side chain; linkers in the order of their positions; H or OH if unused. Positions of bridges follow the written chain, without caps; N, C: chain ends. Non-standard residues stand in square brackets, D forms with d. Residues, ends and D or L forms follow the SMILES beside them. *: point of attachment. Orn(4R-OH,5R-OH) = O=C([C@H](C[C@@H](O)[C@@H](O)N[*:3])N[*:1])[*:2]; hTyr(3S-OH,4S-OH) = N[C@H](C(=O)O)[C@H](O)[C@@H](O)c1ccc(O)cc1; Pro(3S-OH,4S-Me) = C[C@H]1CN[C@H](C(=O)O)[C@H]1O; Benzoyl(4-octyloxy) = CCCCCCCCOc1ccc(C(=O)*)cc1; hTyr = N[C@@H](CCc1ccc(O)cc1)C(=O)O; Hyp = O=C(O)[C@@H]1C[C@@H](O)CN1; Orn = NCCC[C@H](N)C(=O)O A value given as a limit tells only on which side of the number the result lay.

For orientation: MFC means the lowest tested concentration that kills the fungus rather than only halting it. A lower MFC goes with greater fungicidal potency. The term IC50 denotes the concentration that gives 50% inhibition. Low readings indicate higher potency, high ones lower potency. With `CCCCCCCCOc1ccc(C(=O)N[C@H]2CCCNC(=O)[C@@H]3CCCN3C(=O)[C@H]([C@@H](C)O)NC(=O)[C@H](CCc3ccc(O)cc3)NC(=O)[C@@H]3C[C@@H](O)CN3C(=O)[C@H]([C@@H](C)O)NC2=O)cc1` ({Benzoyl(4-octyloxy)}-[Orn]T[Hyp][hTyr]TP; lactam 1-C), the MFC in the test on Candida tropicalis amounted to 0.25 µg/mL (≈ 0.267 µM); against Candida albicans [2], 4 µg/mL (≈ 4.27 µM); against Candida albicans [3], 4 µg/mL (≈ 4.27 µM); against Candida albicans [4], 8 µg/mL (≈ 8.55 µM); against Candida parapsilosis, 8 µg/mL (≈ 8.55 µM). Moreover, in the test with Candida albicans [1], inhibition was half-maximal at 10 µM (IC50).

Turning to `CCCCCCCCOc1ccc(C(=O)N[C@H]2CCCNC(=O)[C@@H]3C[C@@H](O)CN3C(=O)[C@H]([C@@H](C)O)NC(=O)[C@H](Cc3ccc(O)cc3)NC(=O)[C@@H]3CCCN3C(=O)[C@H]([C@@H](C)O)NC2=O)cc1` ({Benzoyl(4-octyloxy)}-[Orn]TPYT[Hyp]; lactam 1-C), the MFC with Candida tropicalis, against Candida albicans [2], in the test with Candida albicans [3], with Candida albicans [4] and against Candida parapsilosis was more than 128 µg/mL each time. The same molecule yielded an IC50 in the test with Candida albicans [1] of more than 10 µM.

On to `CCCCCCCCOc1ccc(C(=O)N[C@H]2CCCNC(=O)[C@@H]3[C@@H](O)[C@@H](C)CN3C(=O)[C@H]([C@@H](C)O)NC(=O)[C@H](Cc3ccc(O)cc3)NC(=O)[C@@H]3C[C@@H](O)CN3C(=O)[C@H]([C@@H](C)O)NC2=O)cc1` ({Benzoyl(4-octyloxy)}-[Orn]T[Hyp]YT[Pro(3S-OH,4S-Me)]; lactam 1-C), for which the MFC in the test with Candida tropicalis, against Candida albicans [2], in the test with Candida albicans [3], in the test on Candida albicans [4] and against Candida parapsilosis was more than 128 µg/mL in each case.

Consider `CCCCCCCCOc1ccc(C(=O)N[C@H]2CCCNC(=O)[C@@H]3C[C@@H](O)CN3C(=O)[C@H]([C@@H](C)O)NC(=O)[C@H](Cc3ccc(O)cc3)NC(=O)[C@@H]3C[C@@H](O)CN3C(=O)[C@H]([C@@H](C)O)NC2=O)cc1` ({Benzoyl(4-octyloxy)}-[Orn]T[Hyp]YT[Hyp]; lactam 1-C), for which the MFC against Candida tropicalis, against Candida albicans [2], in the test with Candida albicans [3], in the test on Candida albicans [4] and against Candida parapsilosis was more than 128 µg/mL throughout. In the test on Candida albicans [1], this molecule registered an IC50 of more than 10 µM.

For `C[C@@H](O)[C@@H]1NC(=O)[C@H](CCc2ccc(O)cc2)NC(=O)[C@@H]2C[C@@H](O)CN2C(=O)[C@H]([C@@H](C)O)NC(=O)[C@@H](N)CCCNC(=O)[C@H]([C@@H](C)O)NC1=O` (H-[Orn]T[Hyp][hTyr]TT; lactam 1-C), the minimal fungicidal concentration (MFC) in the test on Candida tropicalis was 4 µg/mL (≈ 5.65 µM); in the test with Candida albicans [2] it was 8 µg/mL (≈ 11.3 µM); against Candida albicans [3], 8 µg/mL (≈ 11.3 µM); in the test on Candida albicans [4] it was 8 µg/mL (≈ 11.3 µM); against Candida parapsilosis, more than 128 µg/mL. In addition, in the test on Candida albicans [1], the half-inhibitory concentration (IC50) was more than 10 µM.

Take `CCCCCCCCOc1ccc(C(=O)N[C@H]2CCCNC(=O)[C@@H]3C[C@@H](O)CN3C(=O)[C@H]([C@@H](C)O)NC(=O)[C@H](CCc3ccc(O)cc3)NC(=O)[C@@H]3C[C@@H](O)CN3C(=O)[C@H]([C@@H](C)O)NC2=O)cc1` ({Benzoyl(4-octyloxy)}-[Orn]T[Hyp][hTyr]T[Hyp]; lactam 1-C): the MFC was 8 µg/mL (≈ 8.4 µM) against Candida tropicalis; 8 µg/mL (≈ 8.4 µM) in the test with Candida albicans [2]; 8 µg/mL (≈ 8.4 µM) against Candida albicans [3]; 8 µg/mL (≈ 8.4 µM) against Candida albicans [4]; more than 128 µg/mL against Candida parapsilosis. In the test with Candida albicans [1], this molecule registered an IC50 of 10 µM.

For the molecule `CCCCCCCCOc1ccc(C(=O)N[C@H]2CCCNC(=O)[C@@H]3CCCN3C(=O)[C@H]([C@@H](C)O)NC(=O)[C@H](Cc3ccc(O)cc3)NC(=O)[C@@H]3CCCN3C(=O)[C@H]([C@@H](C)O)NC2=O)cc1` ({Benzoyl(4-octyloxy)}-[Orn]TPYTP; lactam 1-C), the MFC with Candida tropicalis, against Candida albicans [2], in the test on Candida albicans [3] and with Candida albicans [4] was more than 64 µg/mL throughout. For the same molecule, the IC50 in the test on Candida albicans [1] is more than 10 µM.

For `CCCCCCCCOc1ccc(C(=O)N[C@H]2CCCNC(=O)[C@@H]3[C@@H](O)[C@@H](C)CN3C(=O)[C@H]([C@@H](C)O)NC(=O)[C@H](CCc3ccc(O)cc3)NC(=O)[C@@H]3C[C@@H](O)CN3C(=O)[C@H]([C@@H](C)O)NC2=O)cc1` ({Benzoyl(4-octyloxy)}-[Orn]T[Hyp][hTyr]T[Pro(3S-OH,4S-Me)]; lactam 1-C), the MFC against Candida tropicalis is 1 µg/mL (≈ 1.04 µM); against Candida albicans [2], 2 µg/mL (≈ 2.07 µM); in the test on Candida albicans [3], 2 µg/mL (≈ 2.07 µM); in the test with Candida albicans [4], 1 µg/mL (≈ 1.04 µM); against Candida parapsilosis, 8 µg/mL (≈ 8.28 µM). For the same molecule, in the test on Candida albicans [1], inhibition was half-maximal at 3 µM (IC50).

For `CCCCCCCCOc1ccc(C(=O)N[C@H]2CCCNC(=O)[C@@H]3CCCN3C(=O)[C@H]([C@@H](C)O)NC(=O)[C@H](Cc3ccc(O)cc3)NC(=O)[C@@H]3C[C@@H](O)CN3C(=O)[C@H]([C@@H](C)O)NC2=O)cc1` ({Benzoyl(4-octyloxy)}-[Orn]T[Hyp]YTP; lactam 1-C), the MFC against Candida tropicalis, against Candida albicans [2], in the test with Candida albicans [3] and in the test with Candida parapsilosis was more than 128 µg/mL each time. In the test with Candida albicans [1], this molecule yielded an IC50 of more than 10 µM.

In the case of `CCCCCCCCOc1ccc(C(=O)N[C@H]2CCCNC(=O)[C@@H]3CCCN3C(=O)[C@H]([C@@H](C)O)NC(=O)[C@H](CCc3ccc(O)cc3)NC(=O)[C@@H]3CCCN3C(=O)[C@H]([C@@H](C)O)NC2=O)cc1` ({Benzoyl(4-octyloxy)}-[Orn]TP[hTyr]TP; lactam 1-C), the MFC against Candida tropicalis was 4 µg/mL (≈ 4.35 µM); against Candida albicans [2], 4 µg/mL (≈ 4.35 µM); against Candida albicans [4], 4 µg/mL (≈ 4.35 µM); with Candida parapsilosis it was more than 128 µg/mL. The molecule further displayed an IC50 with Candida albicans [1] of more than 10 µM.

Turning to `CCCCCCCCOc1ccc(C(=O)N[C@H]2C[C@@H](O)[C@@H](O)NC(=O)[C@@H]3[C@@H](O)[C@@H](C)CN3C(=O)[C@H]([C@@H](C)O)NC(=O)[C@H]([C@H](O)[C@@H](O)c3ccc(O)cc3)NC(=O)[C@@H]3C[C@@H](O)CN3C(=O)[C@H]([C@@H](C)O)NC2=O)cc1` [CILOFUNGIN] ({Benzoyl(4-octyloxy)}-[Orn(4R-OH,5R-OH)]T[Hyp][hTyr(3S-OH,4S-OH)]T[Pro(3S-OH,4S-Me)]; lactam 1-C), the MFC worked out at 0.5 µg/mL (≈ 0.485 µM) against Candida tropicalis; 2 µg/mL (≈ 1.94 µM) against Candida albicans [2]; 0.5 µg/mL (≈ 0.485 µM) with Candida albicans [3]; 0.5 µg/mL (≈ 0.485 µM) against Candida albicans [4]; 8 µg/mL (≈ 7.77 µM) in the test on Candida parapsilosis. For the same molecule, in the test with Candida albicans [1], 1 µM corresponded to half-maximal inhibition (IC50).
